This note sets out measurements from ChEMBL document CHEMBL3826954, “Structure-Guided Discovery of Selective Antagonists for the Chromodomain of Polycomb Repressive Protein CBX7” (ACS Med Chem Lett, 2016).

Data set [1] addresses T1, Chromobox protein homolog 7 (Homo sapiens) (UniProt O95931).
T1 sequence (whole entry): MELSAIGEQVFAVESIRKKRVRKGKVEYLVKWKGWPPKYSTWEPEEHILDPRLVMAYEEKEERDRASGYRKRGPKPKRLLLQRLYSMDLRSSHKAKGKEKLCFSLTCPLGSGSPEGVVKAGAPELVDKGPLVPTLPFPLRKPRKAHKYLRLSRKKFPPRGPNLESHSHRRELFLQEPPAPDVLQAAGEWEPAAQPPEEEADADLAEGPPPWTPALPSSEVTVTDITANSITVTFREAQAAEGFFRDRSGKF
As to the kind of experiment: Antagonist activity at CBX7ChD (7 to 66 residues) expressed in human PC3 cells assessed as transcriptional derepression of p16INK4a at 50 to 250 uM after 12 hrs by qPCR method. The class given is cell-based. To be noted: PC-3. A general note: In qPCR the cycle at which signal appears reflects the starting amount.

In data set [2] the target is T2, Chromobox protein homolog 7 (Mus musculus) (UniProt Q8VDS3).
T2 sequence (whole entry): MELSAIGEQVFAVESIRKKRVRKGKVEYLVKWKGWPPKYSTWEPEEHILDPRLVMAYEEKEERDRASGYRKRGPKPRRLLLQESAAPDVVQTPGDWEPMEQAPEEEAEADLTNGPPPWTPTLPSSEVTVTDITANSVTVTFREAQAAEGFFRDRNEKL
As to the kind of experiment: Antagonist activity at CBX7ChD (7 to 66 residues) expressed in mouse embryonic stem cells assessed as reduction of protein occupancy at Hoxd3 gene locus at 0.5 uM after 18 to 36 hrs by ChIP analysis. It is filed as cell-based.

The target of data set [3] is T1, Chromobox protein homolog 7 (Homo sapiens). As to the kind of experiment: Antagonist activity at CBX7ChD (7 to 66 residues) expressed in human PC3 cells assessed as transcriptional derepression of p16INK4a after 12 hrs by qPCR method. The class given is cell-based. To be noted: PC-3.
Data set [4] has as its target T3, Chromobox protein homolog 7 (Homo sapiens, UniProt O95931).
T3 sequence (O95931 whole entry): T1 sequence (whole entry)
As to the kind of experiment: Binding affinity to CBX7ChD (7 to 66 residues) (unknown origin) expressed in RIPL-BL21 (DE3)-CodonPlus competent cells assessed as compound/protein/FITC-labeled loop C of ANRIL ternary complex formation by fluorescence anisotropy assay. For orientation: Fluorescence polarisation rises when a labelled molecule tumbles more slowly, as on binding a larger partner.

Data set [5] has as its target T2, Chromobox protein homolog 7 (Mus musculus). The data set can be described thus: Antagonist activity at CBX7ChD (7 to 66 residues) expressed in mouse embryonic stem cells assessed as transcriptional derepression of Hoxd3 at 0.5 uM after 18 to 36 hrs by qPCR method. The class given is cell-based.
Data set [6] shares this target. The data set can be described thus: Antagonist activity at CBX7ChD (7 to 66 residues) expressed in mouse embryoid bodies assessed as transcriptional derepression of p16INK4a mRNA levels at 1 to 2 uM after 12 hrs by qPCR method.
For data set [7] the target is unchanged. The data set can be described thus: Antagonist activity at CBX7ChD (7 to 66 residues) expressed in mouse embryonic stem cells assessed as transcriptional derepression of noggin at 0.5 uM after 18 to 36 hrs by qPCR method. It is filed as cell-based.
Data set [8] shares this target. The data set can be described thus: Antagonist activity at CBX7ChD (7 to 66 residues) expressed in mouse embryonic stem cells assessed as p16INK4a expression levels at 1 to 2 uM after 12 hrs by Western blot analysis. The class given is cell-based.
Data set [9] is described as follows: Induction of transcriptional derepression of Gapdh in mouse embryonic stem cells at 0.5 uM after 18 to 36 hrs by qPCR method. To be noted: embryonic stem cell. It is filed as cell-based.
The target in data set [10] is T1, Chromobox protein homolog 7 (Homo sapiens). As to the kind of experiment: Binding affinity to CBX7ChD (7 to 66 residues) (unknown origin) expressed in RIPL-BL21 (DE3)-CodonPlus competent cells assessed as enhancement of FITC-ANRIL-loopC/FITC-16mer-RNA binding to protein by fluorescence anisotropy assay.
Data set [11] can be described thus: Induction of transcriptional derepression of HIF1a in human PC3 cells at 1 to 5 uM after 12 hrs by qPCR method. It is filed as cell-based. To be noted: pc-3, 12 h.
For data set [12], the target named is T3, Chromobox protein homolog 7. As to the kind of experiment: Binding affinity to 15N-labeled CBX7ChD (7 to 66 residues) (unknown origin) expressed in RIPL-BL21 (DE3)-CodonPlus competent cells by HSQC/NMR titration.
The target is the same in data set [13]. As to the kind of experiment: Binding affinity to CBX7ChD (7 to 66 residues) (unknown origin) expressed in RIPL-BL21 (DE3)-CodonPlus competent cells in presence of FITC-labeled SETDB1-K1170me3/H3K27me3/ANRIL-LoopC RNA by fluorescence anisotropy assay.

Molecules are shown by their SMILES. Active and inactive are the calls of the source. No cut-off for these calls is given here.

For the compound `COc1cccc(C(=O)N2CCN(C(=O)COc3cc(C)c(N)c(C(C)C)c3)CC2)c1OC`, the inhibition result in data set [1] was “inactive”.

Usually Kd stands for the equilibrium constant for the complex coming apart. Take `Cc1ccccc1Cn1c(=N)n(CC(O)c2ccc(Cl)c(Cl)c2)c2ccccc21` (stereo not given): the inhibition entry in data set [2], in data set [5], in data set [6], in data set [7] and in data set [8] was “Active” each time. The inhibition entry in data set [3] was “Dose-dependent effect”. For the same compound, the dissociation constant (Kd) in [4] was determined as 23.8 µM; in data set [12] it was 500 µM. Moreover, the Activity entry was “Non-toxic” in [9], “Dose-dependent effect” in data set [10] and “Non-toxic” in [11].

As for `COc1cccc(C(=O)N2CCN(C(=O)COc3cc(C)c(NS(C)(=O)=O)c(C)c3)CC2)c1OC`, in data set [1], the inhibition result was “inactive”.

By Ki is commonly meant a dissociation constant, usually derived from enzyme kinetics or from competition with a known ligand. For the compound `COc1cccc(C(=O)N2CCN(C(=O)COc3ccc(N)c(C)c3)CC2)c1OC`, the inhibitory constant (Ki) in data set [13] was 39.3 µM.

Consider `COc1cccc(C(=O)N2CCN(C(=O)COc3ccc(NC(C)=O)c(C)c3)CC2)c1OC`, for which the inhibition entry in [1] is “inactive”.

Turning to `COc1cccc(C(=O)N2CCN(C(=O)COc3cc(C)c(N)c(C)c3)CC2)c1OC`, the inhibitory constant (Ki) in data set [13] came to 16.9 µM.

On to `CCS(=O)(=O)Nc1c(C)cc(OCC(=O)N2CCN(C(=O)c3cccc(OC)c3OC)CC2)cc1C`, for which the inhibition constant Ki in [13] stood at 10 µM. Further, the inhibition entry in [1] was “inactive”.

As to `COc1cccc(C(=O)N2CCN(C(=O)COc3cc(C)c(NC(N)=O)c(C)c3)CC2)c1OC`, the inhibition constant (Ki) in data set [13] was 4.8 µM.

Turning to `COc1cccc(C(=O)N2CCN(C(=O)COc3ccc(NC(N)=O)c(C)c3)CC2)c1OC`, the Ki in data set [13] was determined as 10 µM.

Consider `CCS(=O)(=O)Nc1ccc(OCC(=O)N2CCN(C(=O)c3cccc(OC)c3OC)CC2)cc1C`, for which the inhibition constant Ki in [13] came to 25 µM. In addition, the inhibition result in data set [1] was “inactive”.

Turning to `COc1cccc(C(=O)N2CCN(C(=O)COc3cccc(C)c3)CC2)c1OC`, in data set [4], the equilibrium dissociation constant (Kd) was determined as 125 µM. The Ki in data set [13] was found to be 33.1 µM. In addition, the inhibition entry in data set [1] is “inactive”.
